Legend:
Male ICR mice = assay: Antagonism of test compounds against general anesthesia induced by general anesthetics (total anesthesia time, loss to recovery of righting reflex); format: in vivo
Procedure: The preparation method: A suitable amount of the compound to be tested was weighed, to which was added a suitable amount of medium and long chain fat emulsion injection with a pipette, and thus a 50 mmol/L solution of the test compound was prepared. After filtering with a 0.22 μm microporous membrane, the solution was immediately used.
Male ICR mice weighing 25 g±1 g were randomly divided into 8 groups, with 8 mice in each group. […] After maintaining the disappearance of the mouse righting reflex for 30 seconds, the solution of each test compound (50 mg/kg, using medium and long chain fat emulsion injection as solvent) or equal volume of medium and long chain fat emulsion injection was respectively injected, and the total anesthesia time of the mice was observed and recorded. Among them, the total anesthesia time refers to the time from the disappearance of the mouse righting reflex to the recovery of the mouse righting reflex.

male SD rats = assay: Antagonism of compounds against general anesthesia maintained by continuous infusion of propofol (anesthesia recovery/awakening time); format: in vivo; conditions: for The average of awakening time: SD rats
Procedure: The preparation method was the same as that of Example 1.
24 male SD rats with a body weight range of 250-300 g were randomly divided into 4 groups, with 6 rats in each group. Continuous anesthesia induction was performed using propofol (22.11 mg/kg, 1.5×EDO, and then maintained at a rate of 1 mg/(kg min) for 30 min. After drug withdrawal, compound 85 at doses of 10 mg/kg, 20 mg/kg, and 50 mg/kg, as well as 50 mg/kg of the test compound solutions (using medium and long chain fat emulsion injection as solvent) or equal volume of medium and long chain fat emulsion injection was immediately injected, respectively, and the anesthesia recovery time of the […] after stopping the medication was observed and recorded. Among them, the anesthesia recovery time refers to the time from the cessation of propofol infusion to the recovery of the righting reflex in mice.

[1] = Etomidate 4.48 mg/kg (2×ED50) i.v. tail vein induction, test compound 50 mg/kg in fat emulsion injected after 30 s loss of righting reflex
[2] = Propofol 22.11 mg/kg (1.5×ED50) i.v. tail vein induction, test compound 50 mg/kg in fat emulsion injected after 30 s loss of righting reflex
[3] = Remimazolam 57.34 mg/kg (1.5×ED50) i.v. tail vein induction, test compound 50 mg/kg in fat emulsion injected after 30 s loss of righting reflex
[4] = Ketamine induction (dose not given), test compound 50 mg/kg in fat emulsion
[5] = test drug 50 mg/kg after withdrawal of propofol infusion (1 mg/(kg min) for 30 min)

Structure (SMILES)	The average of total anesthesia time (Male ICR mice; [1]) [min]	The average of total anesthesia time (Male ICR mice; [2]) [min]	The average of total anesthesia time (Male ICR mice; [3]) [min]	The average of awakening time (male SD rats; [5]) [min]	also measured
CSC1C(=O)C2(C)CCC1C2(C)C (stereo not drawn) [Compound 68]	2.11 ± 0.54	4.05 ± 0.15			
CC12CCC(CC(=O)O)(CC1=O)C2(C)C (stereo not drawn) [Compound 572]			0.85 ± 0.37		
CC12CCC(C(=O)C1=O)C2(C)C (stereo not drawn) [Compound 104]					The average of total anesthesia time (Male ICR mice; [4]): 2.67 ± 0.30 min
CC12CCC(O)(CC1=O)C2(C)C (stereo not drawn) [Compound 563]		2.62 ± 0.18			
CC12CC(Cl)C(CC1=O)C2(C)C (stereo not drawn) [Compound 610]			1.32 ± 0.06	2.72 ± 0.36	
CC1(C)C2CCC1(CCl)C(=O)C2 (stereo not drawn) [Compound 269]		2.15 ± 0.98	1.39 ± 0.45	3.29 ± 0.81	
CC1(C)C2CC(=O)C1(C)C(Cl)C2 (stereo not drawn) [Compound 631]		3.30 ± 0.79	0.70 ± 0.32	2.85 ± 0.58	
CC1(C)C2CCC1(CBr)C(=O)C2 (stereo not drawn) [Compound 270]	2.50 ± 0.99	2.49 ± 0.15	1.01 ± 0.05		
[2H]C1C(=O)C2(C)CCC1C2(C)C (stereo not drawn) [Compound 664]					The average of total anesthesia time (Male ICR mice; [4]): 3.20 ± 0.77 min
CC12CCC(CC1=O)C2(C)C (stereo not drawn) [Compound 85]	0.46 ± 0.25	0.47 ± 0.21	0.45 ± 0.21	0.36 ± 0.98	Reversal of the anesthesia maintenance effect of continuous infusion of propofol (male SD rats; continuous propofol infusion, 10, 20, 50 mg/kg): could dose-dependently shorten the anesthesia recovery time of rats; The average of awakening time (male SD rats; test drug 10 mg/kg after withdrawal of propofol infusion (1 mg/(kg min) for 30 min)): 4.11 ± 1.22 min; The average of awakening time (male SD rats; test drug 20 mg/kg after withdrawal of propofol infusion (1 mg/(kg min) for 30 min)): 3.68 ± 1.12 min; The average of total anesthesia time (Male ICR mice; [4]): 3.01 ± 0.45 min
CC12CCC(C(Br)C1=O)C2(C)C (stereo not drawn) [Compound 86]		1.56 ± 0.21	1.49 ± 0.62		
CC1CC2CC(=O)C1(C)C2(C)C (stereo not drawn) [Compound 661]		2.89 ± 0.64	0.55 ± 0.76	2.39 ± 0.75	
CC1(C)C2CC(=O)C1(C)C(Cl)(Br)C2 (stereo not drawn) [Compound 643]	2.80 ± 0.67			1.01 ± 0.29	
CC12CCC(CC1=O)C2(C)CBr (stereo not drawn) [Compound 130]		1.79 ± 0.09		3.41 ± 0.52	
CC12CCC(CC1=O)C2(C)CO (stereo not drawn) [Compound 157]	2.08 ± 0.32	2.52 ± 0.21			
CC12CCC(CC1=O)C2(C)CC(=O)O (stereo not drawn) [Compound 139]	2.64 ± 0.89		1.29 ± 0.63		
CC12CC(Br)C(CC1=O)C2(C)C (stereo not drawn) [Compound 608]		4.08 ± 0.34			
CC1(C)C2CC(=O)C1(C)C(Br)C2 (stereo not drawn) [Compound 633]	0.96 ± 0.92	2.04 ± 0.63		2.64 ± 0.19	The average of total anesthesia time (Male ICR mice; [4]): 3.35 ± 0.90 min
CC12CCC(CC1=O)C2(C)CBr (stereo not drawn) [Compound 150]		1.26 ± 0.17			

Structure (SMILES)	The average of total anesthesia time (Male ICR mice; [1]) [min]	The average of total anesthesia time (Male ICR mice; [2]) [min]	The average of total anesthesia time (Male ICR mice; [3]) [min]	The average of awakening time (male SD rats; [5]) [min]	also measured
CC1(Br)C(=O)C2(C)CCC1C2(C)C (stereo not drawn) [Compound 120]					The average of total anesthesia time (Male ICR mice; [4]): 3.72 ± 0.24 min
CC12CCC(F)(CC1=O)C2(C)C (stereo not drawn) [Compound 565]	0.87 ± 0.93	2.40 ± 0.89		2.58 ± 0.56	The average of total anesthesia time (Male ICR mice; [4]): 3.46 ± 0.15 min
CC12CCC(Br)(CC1=O)C2(C)C (stereo not drawn) [Compound 561]	2.03 ± 0.61				
CC1C(=O)C2(C)CCC1(C)C2 (stereo not drawn) [Compound 581]	1.07 ± 0.32	2.22 ± 0.27	1.32 ± 0.31	4.66 ± 0.60	
CC12CCC(C(I)C1=O)C2(C)C (stereo not drawn) [Compound 87]	1.56 ± 0.45		0.84 ± 0.78		
CC12CCC(C(Cl)C1=O)C2(C)C (stereo not drawn) [Compound 168]			0.86 ± 0.42		
CC1CCC(C(C)C)CC1=O (stereo not drawn) [Compound 582]	1.27 ± 0.83	1.39 ± 0.08	1.49 ± 0.21	0.96 ± 0.23	
CC12CC(O)C(CC1=O)C2(C)C (stereo not drawn) [Compound 616]	1.15 ± 0.83	2.70 ± 0.63	0.94 ± 0.30		
CC12CCC(C(C(=O)O)C1=O)C2(C)C (stereo not drawn) [Compound 67]		2.14 ± 0.32		3.04 ± 0.18	
CC12CCC(CC1=O)C2(C)CI (stereo not drawn) [Compound 135]	1.72 ± 0.50				
CC1C(=O)CC2(C(C)C)CC12 (stereo not drawn) [Compound 580]	1.36 ± 0.84	3.12 ± 0.12	0.69 ± 0.25	2.76 ± 0.20	
CCC1(C)C2CCC1(C)C(=O)C2 (stereo not drawn) [Compound 163]	2.17 ± 0.60	1.51 ± 0.51	0.77 ± 0.02	1.33 ± 0.79	
CC12CCC(CC1=O)C2(C)C(Cl)Br (stereo not drawn) [Compound 262]					The average of total anesthesia time (Male ICR mice; [4]): 3.92 ± 0.83 min
CC1(C)[C@H]2CC[C@]1(C)C(=O)C2 [Compound 171]	1.97 ± 0.07	0.42 ± 0.32	0.73 ± 0.57	0.34 ± 0.89	The average of total anesthesia time (Male ICR mice; [4]): 3.64 ± 0.89 min
CC12CCC(CC1=O)C2(C)CO (stereo not drawn) [Compound 140]	2.05 ± 0.33	4.13 ± 0.20	1.16 ± 0.92		
CC(=O)OC1CC2(C)C(=O)CC1C2(C)C (stereo not drawn) [Compound 626]	2.05 ± 0.54				
CC1(C)C2CCC1(CO)C(=O)C2 (stereo not drawn) [Compound 273]		1.43 ± 0.43			
CC1(CBr)C2CCC1(CBr)C(=O)C2Br (stereo not drawn) [Compound 70]					The average of total anesthesia time (Male ICR mice; [4]): 3.49 ± 0.40 min
